9 molecules from US12258337B2, “Bicyclic CX3CR1 receptor agonists” (Board of Regents, The University of Texas System, priority 2019, dated 2025) can be followed below.

What all share (format): cell-based
One assay addresses T1, mCX3CR1 (Mus musculus, UniProt Q9Z0D9).
T1 construct: expressed in transfected cells; stably expresses a Ca2+ sensitive photo-protein
T1 sequence (Q9Z0D9 1-354): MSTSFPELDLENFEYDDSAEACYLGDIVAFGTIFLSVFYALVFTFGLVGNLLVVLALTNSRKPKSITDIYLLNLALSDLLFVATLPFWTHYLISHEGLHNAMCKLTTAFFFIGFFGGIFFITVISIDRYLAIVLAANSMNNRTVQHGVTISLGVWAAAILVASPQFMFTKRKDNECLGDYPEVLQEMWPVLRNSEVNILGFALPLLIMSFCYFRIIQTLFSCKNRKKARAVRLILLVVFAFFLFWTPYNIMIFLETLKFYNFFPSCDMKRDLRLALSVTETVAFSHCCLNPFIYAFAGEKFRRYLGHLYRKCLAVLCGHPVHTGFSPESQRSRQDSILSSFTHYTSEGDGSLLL
Kind of assay: Ga16 assay, CX3CR1 agonism, Ca2+ sensitive photo-protein readout (FLIPRTETRA). The following applies: mouse CX3CR1 cell line. Summed up:
(§1)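 Cells expressing human, mouse or rat CX3CR1 with a stably expressed Ca2+-sensitive photoprotein were loaded with 10 μM coelenterazine in tyrode buffer pH 7.4 for 3 h at room temperature. Agonist-mode luminescence kinetics were recorded for 90 s after compound injection on FLIPRTETRA. Dose-response runs were done in quadruplicate, with fractalkine as the reference agonist.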

The next assay deals with T2, rCX3CR1 (Rattus norvegicus, UniProt P35411).
T2 construct: expressed in transfected cells; stably expresses a Ca2+ sensitive photo-protein
T2 sequence (P35411 1-354): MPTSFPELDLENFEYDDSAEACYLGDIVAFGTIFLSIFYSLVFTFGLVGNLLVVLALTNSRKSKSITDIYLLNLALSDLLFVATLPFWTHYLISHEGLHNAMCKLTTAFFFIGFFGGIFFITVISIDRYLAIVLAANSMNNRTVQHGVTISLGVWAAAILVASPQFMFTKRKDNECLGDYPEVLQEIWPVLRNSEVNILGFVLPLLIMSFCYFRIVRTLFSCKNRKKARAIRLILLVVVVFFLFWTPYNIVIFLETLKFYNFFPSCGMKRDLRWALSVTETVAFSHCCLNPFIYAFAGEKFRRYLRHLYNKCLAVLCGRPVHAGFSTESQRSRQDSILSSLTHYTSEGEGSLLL
The description is as above. The following applies: rat CX3CR1 cell line. Summed up:
as §1

In assay [1] the target is T3, hCX3CR1 (Homo sapiens, UniProt P49238).
T3 sequence (P49238 1-355): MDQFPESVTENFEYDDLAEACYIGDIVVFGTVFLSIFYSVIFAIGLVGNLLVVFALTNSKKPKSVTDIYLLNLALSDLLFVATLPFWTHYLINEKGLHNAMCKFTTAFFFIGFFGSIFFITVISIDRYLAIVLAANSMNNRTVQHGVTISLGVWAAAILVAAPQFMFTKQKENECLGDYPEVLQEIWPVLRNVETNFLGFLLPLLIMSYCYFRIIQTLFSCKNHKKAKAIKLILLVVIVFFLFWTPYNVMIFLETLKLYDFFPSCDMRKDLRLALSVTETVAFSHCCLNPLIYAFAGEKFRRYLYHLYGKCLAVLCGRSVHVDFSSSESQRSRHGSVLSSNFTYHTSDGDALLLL
The assay is described as above. Further details: expressed in transfected cells; stably expresses a Ca2+ sensitive photo-protein. Particulars: human CX3CR1 cell line. The gist of the method:
as §1

For assay [2], the target named is T3, hCX3CR1. Kind of assay: ChAMPion assay (CHO ChAMPion/CX3CR1 K1.6, cAMP/CNG channel, photoprotein luminescence). Further details: expressed in transfected cells; stably expresses a Ca2+ sensitive photo-protein. Particulars: ChAMPion assay, CHO ChAMPion/CX3CR1 K1.6, Forskolin 3 μM; read-out: hCX3CR1 agonism EC50. The procedure:
Buffers and reagents. PBS (D-PBS without calcium and magnesium; EuroClone); Trypsin (Trypsin 0.05%, EDTA 0.02% in PBS; EuroClone); DMSO (Sigma); Tyrode buffer Ca^2+ free: in-house solution (130 mM NaCl, 5 mM KCl, 1 mM MgCl^2, 5 mM NaHCO3, 20 mM HEPES (pH 7.4); sterile filtered and autoclaved); Tyrode buffer 10 mM Ca^2+: in-house solution (130 mM NaCl, 5 mM KCl, 10 mM CaCl2), 1 mM MgCl2, 5 mM NaHCO3, 20 mM HEPES, in water at pH 7.4, sterile filtered); Coelenterazine, native (Biosynth); stock 10 mM; Agonist: Recombinant Human Fractalkine (CX3CL1) (PeproTech); stock: 10 μM in standard Tyrode buffer/BSA 01%; stored at −20° C.
Cell line. The final clone for the hCX3CR1 assay was CHO ChAMPion/CX3CR1 K1.6. ChAMPion technology is based on the co-expression of a Ca^2+ sensitive photoprotein and of a cyclic nucleotide-gated (CNG) channel acting as a cAMP biosensor in a CHO-K1 cell line. CNG channels are non-selective ligand gated cation channels that can be opened by the direct interaction with either cAMP or cGMP, at the intracellular C-terminus site of the channel. Channel opening allows the flux of extracellular calcium into the cell cytoplasm and its transient elevation can be recorded by means of several different calcium indicators. In the chAMPion system, the CNG channel has been modified to display sensitivity to cAMP levels in the physiological range. In addition the calcium influx through the opened channel is immediately detected by the recording of the photoprotein-emitted flash type luminescence signal.
The chAMPion cell line system can monitor the activation of transfected Gαi-coupled receptors, which elicit changes in 3,‘5’-adenosine cyclic monophosphate (cAMP) levels, which in turn is responsible for CNG opening and consequent Ca^2+ influx.
Assay protocol. Experiments were performed in 384 MTP format. Cells were seeded at 10,000 cells/well in 25 μL/well complete growth medium without selection antibiotics in 384-well plates. Twenty-four hours later, cells were assayed for the response to various compounds using the Ca^2+ sensitive photo-protein stably expressed in the cells as readout.
The experiment was performed in a 384-well format according to the following procedure: • 24h after seeding, pre-incubate the cells at room temperature for 1 hour. • Then remove the culture medium. • Load cells with 20 μL/well of Ca^2+ free tyrode buffer+ceolenterazine 5 μM. • Incubate cell plates for 4 hours at RT. • 10 μl/well of 3× concentrated compounds in Ca^2+ free tyrode buffer+Forskolin 9 μM (final Forskolin concentration=3 μM) are applied to the cells (at 10 μl/s). Ten minutes later a second injection is performed: 10 μl/well of Ca^2+ free tyrode buffer+BSA 0.04% (final BSA concentration=0.01%). Twenty minutes later a third injection is performed: 20 μl/well of 10 mM Ca^2+ tyrode buffer (final Ca^2+ concentration was 3.3 mM) and luminescence is recorded for 90 seconds.
Data from FLIPRTETRA measurements are analyzed with the Genedata Screener© software.

The test system of a further assay is primary human monocytes. The experiment in a line: Chemotaxis assay, transwell migration of primary human monocytes. The following applies: 4 hours, CellTiter-Glo, FIG. 2. The procedure:
Primary Human Monocytes Migrate Along a Chemotactic Gradient towards CX3CR1 Agonists
The chemotaxis assay assesses the CX3CR1-dependent migration of primary human monocytes towards fractalkine and active CX3CR1 agonists. To determine the migration index, monocytes were positively selected from freshly isolated human PBMCs and seeded at 50,000 cells per insert, on the upper chamber of a transwell plate with a pore size of 5 μm. […] Monocytes were allowed to migrate for 4 hours, and subsequently detected in the lower chamber with the CellTiter-Glo Assay, which measures metabolically active cells.

The term EC50 denotes the concentration at which the effect is half-maximal. As for `O=C(NCC1(CN2CCCC2)CCOCC1)c1cc2c(s1)CCCCCC2` [Example 20, N-[[4-(pyrrolidin-1-ylmethyl)oxan-4-yl]methyl]-4,5,6,7,8,9-hexahydrocycloocta[b]thiophene-2-carboxamide], the EC50 turned out to be 20.9 µM at mCX3CR1, 19.2 µM on rCX3CR1, 8.8 µM at hCX3CR1 [1] and 1.7 µM at hCX3CR1 [2].

With `CN(C)CC1(CNC(=O)c2cc3c(s2)CCCCCC3)CCCCC1` [Example 22, N-[[1-[(dimethylamino)methyl]cyclohexyl]methyl]-4,5,6,7,8,9-hexahydrocycloocta[b]thiophene-2-carboxamide], the EC50 at mCX3CR1 was determined as 15.1 µM; on rCX3CR1, 13.7 µM; on hCX3CR1 [1], 11.5 µM; at hCX3CR1 [2], 1.3 µM.

Turning to `CC(C)(CNC(=O)c1cc2c(s1)CCCCCCC2)CN1CCCC1` [Example 24, N-(2,2-dimethyl-3-pyrrolidin-1-ylpropyl)-5,6,7,8,9,10-hexahydro-4H-cyclonona[b]thiophene-2-carboxamide], the EC50 on mCX3CR1 is 50.9 µM; on rCX3CR1, 59.9 µM; at hCX3CR1 [1] it was 24.6 µM; at hCX3CR1 [2], 10.6 µM.

For the molecule `O=C(NCC1(CN2CCCC2)CCC1)c1cc2c(s1)CCCCCCC2` [Example 26, N-[[1-(pyrrolidin-1-ylmethyl)cyclobutyl]methyl]-5,6,7,8,9,10-hexahydro-4H-cyclonona[b]thiophene-2-carboxamide], the EC50 at mCX3CR1 stood at 58.1 µM; at rCX3CR1, 46.7 µM; on hCX3CR1 [1], 27.3 µM; at hCX3CR1 [2], 4.3 µM.

Turning to `CN(CCO)CC1(CNC(=O)c2cc3c(s2)CCCCCCC3)CCCC1` [Example 29, N-[[1-[[2-hydroxyethyl(methyl)amino]methyl]cyclopentyl]methyl]-5,6,7,8,9,10-hexahydro-4H-cyclonona[b]thiophene-2-carboxamide], the EC50 at mCX3CR1 worked out at 46.3 µM; on rCX3CR1, 47 µM; at hCX3CR1 [1], 18.7 µM; on hCX3CR1 [2], 4.8 µM.

With `CN(C)CC1(CNC(=O)c2ccc3c(c2)CCCCCC3)CCCC1` [Example 33, N-[[1-[(dimethylamino)methyl]cyclopentyl]methyl]-5,6,7,8,9,10-hexahydrobenzo[8]annulene-3-carboxamide], the EC50 came out at 44.4 µM at mCX3CR1, 22.7 µM at rCX3CR1, 17.4 µM at hCX3CR1 [1] and 4 µM at hCX3CR1 [2].

As for `CN(CCO)CC1(CNC(=O)c2cc3c(s2)CCCCC3)CCCC1` [Example 34, N-[[1-[[2-hydroxyethyl(methyl)amino]methyl]cyclopentyl]methyl]-5,6,7,8-tetrahydro-4H-cyclohepta[b]thiophene-2-carboxamide], the EC50 on mCX3CR1 was 46.9 µM; on rCX3CR1, 12.9 µM; on hCX3CR1 [1] it was 13.7 µM; at hCX3CR1 [2] it was 36.5 µM.

Regarding `O=C(NCC1(CN2C[C@H]3CCO[C@@H]3C2)CCCC1)c1cc2c(s1)CCCCCC2` [Example 69, N-[[1-[[(3aR,6aS)-2,3,3a,4,6,6a-hexahydrofuro[2,3-c]pyrrol-5-yl]methyl]cyclopentyl]methyl]-4,5,6,7,8,9-hexahydrocycloocta[b]thiophene-2-carboxamide], the 50% effective concentration (EC50) on mCX3CR1 was 33.6 µM; on rCX3CR1, 20.4 µM; at hCX3CR1 [1], 18 µM; on hCX3CR1 [2], 5.5 µM.

B1: fractalkine: recombinant human fractalkine (CX3CL1), large membrane-anchored or secreted cytokine, ligand of CX3CR1 (protein, UniProt P78423 25-397, looked up)
Fractalkine: QHHGVTKCNITCSKMTSKIPVALLIHYQQNQASCGKRAIILETRQHRLFCADPKEQWVKDAMQHLDRQAAALTRNGGTFEKQIGEVKPRTTPAAGGMDESVVLEPEATGESSSLEPTPSSQEAQRALGTSPELPTGVTGSSGTRLPPTPKAQDGGPVGTELFRVPPVSTAATWQSSAPHQPGPSLWAEAKTSEAPSTQDPSTQASTASSPAPEENAPSEGQRVWGQGQSPRPENSLEREEMGPVPAHTDAFQDWGPGSMAHVSVVPVSSEGTPSREPVASGSWTPKAEEPIHATMDPQRLGVLITPVPDAQAATRRQAVGLLAFLGLLFCLGVAMFTYQSLQGCPRKMAGEMAEGLRYIPRSCGSNSYVLVPV
With B1, in the assay with primary human monocytes, the “migration of primary human monocytes towards substance (chemotaxis)” value is reported as “monocytes migrated towards fractalkine”.
